According to US20260042755A1, “GPR6 INVERSE AGONISTS” (MapLight Therapeutics, Inc., priority 2022, published 2026):

Key:
GPR6 = target: T1, GPR6 (Homo sapiens, UniProt P46095); experiment: GPR6 antagonist functional cAMP assay (LANCE Ultra cAMP TR-FRET, CHO cells stably expressing GPR6); type: cell-based
T1 construct: expressed in transfected cells; host or cells: CHO cells
In short: (§1)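 cAMP quantified by TR-FRET immunoassay after 45 min compound treatment at 37° C of CHO cells stably expressing GPR3 or GPR6, in PDE-inhibitor (Ro 20-1724, 150 μM) buffer with 0.1% BSA. Data scaled between DMSO (0%) and reference compounds (100%); antagonist IC50 by 4-parameter logistic fit.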

GPR3 = target: T2, GPR3 (Homo sapiens, UniProt P46089); experiment: GPR3 antagonist functional cAMP assay (LANCE Ultra cAMP TR-FRET, CHO cells stably expressing GPR3); type: cell-based
T2 construct: expressed in transfected cells; host or cells: CHO cells
In short: as §1

[1] = procedure as described in Example 24
[2] = CHO cells stably expressing GPR6, cAMP assay (Example 24)
[3] = CHO cells stably expressing GPR3, cAMP assay (Example 24)
[4] = CHO cells stably expressing GPR6, cAMP assay
[5] = CHO cells stably expressing GPR3, cAMP assay

T2 sequence (P46089 whole entry, species assumed): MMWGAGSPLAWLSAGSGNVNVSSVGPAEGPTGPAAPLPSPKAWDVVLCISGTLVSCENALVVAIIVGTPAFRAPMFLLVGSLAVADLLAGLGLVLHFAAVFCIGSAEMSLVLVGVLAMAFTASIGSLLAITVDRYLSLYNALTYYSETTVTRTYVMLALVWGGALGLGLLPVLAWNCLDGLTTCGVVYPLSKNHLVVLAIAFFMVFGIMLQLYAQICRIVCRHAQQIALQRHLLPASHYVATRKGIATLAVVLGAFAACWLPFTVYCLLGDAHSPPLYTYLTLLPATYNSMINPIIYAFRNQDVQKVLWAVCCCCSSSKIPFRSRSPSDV
T1 sequence (P46095 whole entry): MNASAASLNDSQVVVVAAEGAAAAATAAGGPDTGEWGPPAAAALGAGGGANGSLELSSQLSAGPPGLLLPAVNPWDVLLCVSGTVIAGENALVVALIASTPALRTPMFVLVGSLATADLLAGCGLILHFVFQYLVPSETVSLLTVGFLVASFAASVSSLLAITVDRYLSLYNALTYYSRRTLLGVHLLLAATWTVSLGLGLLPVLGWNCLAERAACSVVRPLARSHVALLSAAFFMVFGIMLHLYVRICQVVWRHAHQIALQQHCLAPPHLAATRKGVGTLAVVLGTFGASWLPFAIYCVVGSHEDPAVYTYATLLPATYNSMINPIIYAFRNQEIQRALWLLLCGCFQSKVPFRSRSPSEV

IC50 (GPR6; [2]) [nM]	IC50 (GPR3; [3]) [nM]	IC50 (GPR6; procedure of Example 24) [nM]	IC50 (GPR3; procedure of Example 24) [nM]	Structure (SMILES)	further results
				CC(=O)N1CCc2nc(N3CCC(Oc4ccc(F)cc4F)CC3)c(-c3cccc(=O)n3C)nc2C1 [Compound 36, 6-{6-acetyl-2-[4-(2,4-difluorophenoxy)piperidin-1-yl]-5H,6H,7H,8H-pyrido[3,4-b]pyrazin-3-yl}-1-methyl-1,2-dihydropyridin-2-one]	IC50 (GPR6; [1]): 1000 to 30000 nM; IC50 (GPR3; [1]): 100 to 1000 nM
1000 to 30000	1000 to 30000			CC(=O)N1CCc2nc(N3CCC(Oc4cccc(F)c4)CC3)c(-c3cnn(C)c3)nc2C1 [Compound 393, 1-{2-[4-(3-fluorophenoxy)piperidin-1-yl]-3-(1-methyl-1H-pyrazol-4-yl)-5H,6H,7H,8H-pyrido[3,4-b]pyrazin-6-yl}ethan-1-one]	
1000 to 30000	1000 to 30000			COC[C@@H]1CN(Cc2ccc(F)cc2F)CCN1c1nc2ccncc2nc1-c1cnn(C)c1 (single isomer, unassigned) [Compound 240]	
< 100	1000 to 30000			CC(C)S(=O)(=O)N1CCc2nc(N3CCC(Oc4ccc(F)cc4F)CC3)c(-c3cn[nH]c3)nc2C1 [Compound 150, 4-(2,4-difluorophenoxy)-1-[6-(propane-2-sulfonyl)-3-(1H-pyrazol-4-yl)-5H,6H,7H,8H-pyrido[3,4-b]pyrazin-2-yl]piperidine]	
1000 to 30000	1000 to 30000			CCn1cnc(-c2nc3c(nc2N2CCC(Oc4ccc(F)cc4F)CC2)CCN(C(C)=O)C3)c1 [Compound 476, 1-{2-[4-(2,4-difluorophenoxy)piperidin-1-yl]-3-(1-ethyl-1H-imidazol-4-yl)-5H,6H,7H,8H-pyrido[3,4-b]pyrazin-6-yl}ethan-1-one]	
1000 to 30000	1000 to 30000			O=S(=O)(C1COC1)N1CCc2nc(N3CCC(Oc4ccc(F)cc4F)CC3)c(-c3cn[nH]c3)nc2C1 [Compound 207, 4-(2,4-difluorophenoxy)-1-[6-(oxetane-3-sulfonyl)-3-(1H-pyrazol-4-yl)-5H,6H,7H,8H-pyrido[3,4-b]pyrazin-2-yl]piperidine]	
		< 100	1000 to 30000	CCn1cc(-c2nc3cnc(N)cc3nc2N2CCC(Oc3ccc(F)cc3F)CC2)cn1 [Compound 294, 2-[4-(2,4-difluorophenoxy)piperidin-1-yl]-3-(1-ethyl-1H-pyrazol-4-yl)pyrido[3,4-b]pyrazin-7-amine]	
1000 to 30000	1000 to 30000			Cn1cc(-c2nc3cncc(C#N)c3nc2N2CCC(Oc3ccc(F)cc3F)CC2)cn1 [Compound 436, 2-[4-(2,4-difluorophenoxy)piperidin-1-yl]-3-(1-methyl-1H-pyrazol-4-yl)pyrido[3,4-b]pyrazine-8-carbonitrile]	
		100 to 1000	1000 to 30000	CC(C)(O)[C@@](C)(O)c1cc2nc(-c3cnn(C4CC4)c3)c(N3CCN(Cc4ccccc4F)CC3)nc2cn1 (single isomer, unassigned) [Compound 776]	
		100 to 1000	100 to 1000	COC[C@](C)(O)c1cc2nc(-c3cnn(C)c3)c(N3CCC(Oc4ccc(F)cc4F)CC3)nc2cn1 (single isomer, unassigned) [Compound 689]	
		< 100	1000 to 30000	CC(=O)N1CCc2nc(N3CCN(Cc4ccc(Cl)cc4F)CC3)c(-c3ccc(F)c(N)n3)nc2C1 [Compound 610, 1-[3-(6-amino-5-fluoro-2-pyridyl)-2-{4-[(4-chloro-2-fluorophenyl)methyl]-1-piperazinyl}-5,6,7,8-tetrahydro-1,4,6-triaza-6-naphthyl]-1-ethanone]	
100 to 1000	1000 to 30000			COc1cccc(-c2nc3cnccc3nc2N2CCC(Oc3ccc(F)cc3F)CC2)n1 [Compound 102, 2-{2-[4-(2,4-difluorophenoxy)piperidin-1-yl]pyrido[3,4-b]pyrazin-3-yl}-6-methoxypyridine]	
< 100	1000 to 30000			CCn1cc(-c2nc3c(nc2N2CCC(Oc4ccc(F)cc4F)CC2)CCN(C(C)=O)C3)cn1 [Compound 220, 1-{2-[4-(2,4-difluorophenoxy)piperidin-1-yl]-3-(1-ethyl-1H-pyrazol-4-yl)-5H,6H,7H,8H-pyrido[3,4-b]pyrazin-6-yl}ethan-1-one]	
		1000 to 30000	1000 to 30000	Cn1cc(-c2nc3c(O)nccc3nc2N2CCC(Oc3ccc(F)cc3F)CC2)cn1 [Compound 376, 2-[4-(2,4-difluorophenoxy)piperidin-1-yl]-3-(1-methyl-1H-pyrazol-4-yl)pyrido[3,4-b]pyrazin-5-ol]	
1000 to 30000	1000 to 30000			CCn1cc(-c2nc3c(nc2N2CCC(Oc4ccc(F)cc4F)CC2)CCN(C(=O)OC(C)(C)C)C3)cn1 [Compound 260, tert-butyl 2-[4-(2,4-difluorophenoxy)piperidin-1-yl]-3-(1-ethyl-1H-pyrazol-4-yl)-5H,6H,7H,8H-pyrido[3,4-b]pyrazine-6-carboxylate]	
		100 to 1000	1000 to 30000	CC(C)(O)[C@@H](O)c1cc2nc(N3CCC(=Cc4ccc(F)cc4F)CC3)c(-c3cnn(C(F)F)c3)nc2cn1 (single isomer, unassigned) [Compound 778]	
100 to 1000	1000 to 30000			CNc1nccc(-c2nc3c(nc2N2CCC(Oc4ccc(F)cc4F)CC2)CCN(C(C)=O)C3)n1 [Compound 473, 1-{2-[4-(2,4-difluorophenoxy)piperidin-1-yl]-3-[2-(methylamino)pyrimidin-4-yl]-5H,6H,7H,8H-pyrido[3,4-b]pyrazin-6-yl}ethan-1-one]	
		1000 to 30000	1000 to 30000	CC(=O)N1CCc2nc(N3CCC(Cc4ccc(F)cc4F)C3)c(-c3cnn(C)c3)nc2C1 (stereo not shown) [Compound 738, 1-(2-{3-[(2,4-difluorophenyl)methyl]-1-pyrrolidinyl}-3-(1-methyl-4-pyrazolyl)-5,6,7,8-tetrahydro-1,4,6-triaza-6-naphthyl)-1-ethanone]	
				CC(C)(O)C(O)c1cc2nc(-c3cnn(C4CC4)c3)c(N3CCC(Oc4ccc(F)cc4F)CC3)nc2cn1 (single isomer, unassigned) [Compound 590]	IC50 (GPR6; [4]): < 100 nM; IC50 (GPR3; [5]): 100 to 1000 nM
		≥ 30000	≥ 30000	COc1ccc(C(=O)N2CCN(c3nc4c(nc3-c3cnn(C)c3)CN(C(C)=O)CC4)CC2)c(OC)c1 [Compound 287, 1-{2-[4-(2,4-dimethoxybenzoyl)piperazin-1-yl]-3-(1-methyl-1H-pyrazol-4-yl)-5H,6H,7H,8H-pyrido[3,4-b]pyrazin-6-yl}ethan-1-one]	
				CC(C)(O)C(=O)c1cc2nc(N3CCN(Cc4ccc(F)cc4F)CC3)c(-c3cnn(C(F)F)c3)nc2cn1 [Compound 566, 1-{3-[1-(difluoromethyl)-4-pyrazolyl]-2-{4-[(2,4-difluorophenyl)methyl]-1-piperazinyl}-1,4,6-triaza-7-naphthyl}-2-hydroxy-2-methyl-1-propanone]	IC50 (GPR6; [4]): 100 to 1000 nM; IC50 (GPR3; [5]): 1000 to 30000 nM
1000 to 30000	1000 to 30000			CC(=O)N1CCc2nc(N3CCC(Oc4ccc(F)cc4F)CC3)c(-c3cncc(O)c3)nc2C1 [Compound 158, 1-{2-[4-(2,4-difluorophenoxy)piperidin-1-yl]-3-(5-hydroxypyridin-3-yl)-5H,6H,7H,8H-pyrido[3,4-b]pyrazin-6-yl}ethan-1-one]	
1000 to 30000	1000 to 30000			COC1CN(c2cc3nc(N4CCC(Oc5ccc(F)cc5F)CC4)c(-c4cnn(C)c4)nc3cn2)C1 [Compound 450, 4-(2,4-difluorophenoxy)-1-[7-(3-methoxyazetidin-1-yl)-3-(1-methyl-1H-pyrazol-4-yl)pyrido[3,4-b]pyrazin-2-yl]piperidine]	
